# Calls of active or inactive are those of the source.
# Tests used:
# [1] = NIH-3T3 fibroblast cytotoxicity, dose response, cytotoxicity control, cell-based, fluorescence, Alamar Blue, secondary assay (AID 2327); type: functional;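 note: NIH-3T3 mouse fibroblasts cultured with fluconazole at 8 µg/mL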
# [2] = C. albicans growth with fluconazole, confirmation, fluorescence, retest (AID 2467); type: functional, cell-based
# Bcl-2-related protein A1 = molecular target: T1, Bcl-2-related protein A1 (Mus musculus, UniProt Q07440); type: functional;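 note: confirmatory dose–response counterscreen on Bfl-1, used to check hits from a UBC13 polyubiquitin inhibitor campaign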
# T1 sequence (Q07440 whole entry): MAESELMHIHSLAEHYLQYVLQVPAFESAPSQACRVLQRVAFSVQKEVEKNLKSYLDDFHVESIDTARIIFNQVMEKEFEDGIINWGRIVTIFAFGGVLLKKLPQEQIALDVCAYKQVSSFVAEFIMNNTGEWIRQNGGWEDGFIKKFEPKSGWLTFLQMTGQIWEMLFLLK
# [3] = molecular target: T2, Ubiquitin-conjugating enzyme E2 N (Homo sapiens, UniProt P61088); type: functional
# T2 sequence (P61088 whole entry): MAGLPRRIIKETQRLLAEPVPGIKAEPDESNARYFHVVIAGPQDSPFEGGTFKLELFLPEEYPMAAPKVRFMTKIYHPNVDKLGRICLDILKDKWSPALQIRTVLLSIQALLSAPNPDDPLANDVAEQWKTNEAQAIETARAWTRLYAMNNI
# [4] = molecular target: T2, Ubiquitin-conjugating enzyme E2 N; type: functional; remark: listed apart in the source
# [5] = molecular target: T3, Small ubiquitin-related modifier 1 (Homo sapiens, UniProt P63165); test: inhibitors of SUMO1 peptide binding, dose response, biochemical, fluorescence polarization, uHTS hits (AID 624382); type: functional; settings: read-out: IC50_Mean
# T3 sequence (P63165 whole entry): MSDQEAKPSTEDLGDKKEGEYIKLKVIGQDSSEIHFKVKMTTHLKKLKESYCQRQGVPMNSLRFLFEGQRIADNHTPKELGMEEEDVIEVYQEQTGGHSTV
# [6] = molecular target: T3, Small ubiquitin-related modifier 1; test: inhibitors of SUMO1 partner interactions, dose response, biochemical, FRET (AID 624383); type: functional; settings: read-out: IC50_Mean
# [7] = molecular target: T4, DNA repair and recombination protein RAD54-like (Homo sapiens, UniProt Q92698); test: inhibitors of human RAD54 branch migration, confirmation, biochemical, fluorescence, cherry-picked samples, dose series (AID 651657); type: functional
# T4 sequence (Q92698 whole entry): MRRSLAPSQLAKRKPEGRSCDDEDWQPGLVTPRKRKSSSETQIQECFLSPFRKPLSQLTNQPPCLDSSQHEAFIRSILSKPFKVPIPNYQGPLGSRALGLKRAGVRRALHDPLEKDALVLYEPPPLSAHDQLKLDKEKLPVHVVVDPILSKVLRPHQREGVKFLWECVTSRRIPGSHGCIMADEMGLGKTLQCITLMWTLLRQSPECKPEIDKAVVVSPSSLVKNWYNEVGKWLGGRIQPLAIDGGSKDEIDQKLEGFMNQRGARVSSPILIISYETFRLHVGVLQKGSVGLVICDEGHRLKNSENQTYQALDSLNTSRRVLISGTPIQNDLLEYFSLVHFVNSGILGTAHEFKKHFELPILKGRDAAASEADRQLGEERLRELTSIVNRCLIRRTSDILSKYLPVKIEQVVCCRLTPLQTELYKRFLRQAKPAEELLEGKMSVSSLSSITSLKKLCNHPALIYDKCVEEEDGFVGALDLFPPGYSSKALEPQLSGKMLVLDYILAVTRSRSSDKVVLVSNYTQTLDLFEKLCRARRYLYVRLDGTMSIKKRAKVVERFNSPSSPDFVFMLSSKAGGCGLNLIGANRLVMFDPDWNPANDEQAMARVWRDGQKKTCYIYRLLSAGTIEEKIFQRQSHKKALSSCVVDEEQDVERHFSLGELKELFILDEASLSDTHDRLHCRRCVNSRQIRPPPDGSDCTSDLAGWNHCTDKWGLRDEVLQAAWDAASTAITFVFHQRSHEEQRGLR
# [8] = molecular target: T5, Rac GTPase-activating protein 1 (Homo sapiens, UniProt Q9H0H5); test: MgcRacGAP GTPase-activating activity inhibitors, confirmation, biochemical, ADP Hunter fluorescence, primary and confirmatory (AID 624330); type: functional
# T5 sequence (Q9H0H5 whole entry): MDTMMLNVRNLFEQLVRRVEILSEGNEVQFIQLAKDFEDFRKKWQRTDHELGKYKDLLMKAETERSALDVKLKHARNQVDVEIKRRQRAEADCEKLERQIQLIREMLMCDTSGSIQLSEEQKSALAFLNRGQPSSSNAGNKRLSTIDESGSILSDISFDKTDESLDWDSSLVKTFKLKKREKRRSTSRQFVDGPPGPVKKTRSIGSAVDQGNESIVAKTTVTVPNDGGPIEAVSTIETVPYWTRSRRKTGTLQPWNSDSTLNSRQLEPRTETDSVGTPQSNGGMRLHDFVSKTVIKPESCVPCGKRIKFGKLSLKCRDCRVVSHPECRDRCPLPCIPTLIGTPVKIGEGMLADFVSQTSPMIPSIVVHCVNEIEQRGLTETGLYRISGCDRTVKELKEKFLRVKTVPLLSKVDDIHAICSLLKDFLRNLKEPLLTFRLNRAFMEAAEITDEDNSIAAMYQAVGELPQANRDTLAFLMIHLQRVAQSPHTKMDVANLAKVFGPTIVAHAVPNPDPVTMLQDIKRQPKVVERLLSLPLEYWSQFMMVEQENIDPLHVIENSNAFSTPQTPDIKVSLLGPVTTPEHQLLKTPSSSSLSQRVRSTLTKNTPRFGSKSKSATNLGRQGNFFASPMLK
# [9] = molecular target: T6, Sentrin-specific protease 8 (Homo sapiens, UniProt Q96LD8); type: functional
# T6 sequence (Q96LD8 whole entry): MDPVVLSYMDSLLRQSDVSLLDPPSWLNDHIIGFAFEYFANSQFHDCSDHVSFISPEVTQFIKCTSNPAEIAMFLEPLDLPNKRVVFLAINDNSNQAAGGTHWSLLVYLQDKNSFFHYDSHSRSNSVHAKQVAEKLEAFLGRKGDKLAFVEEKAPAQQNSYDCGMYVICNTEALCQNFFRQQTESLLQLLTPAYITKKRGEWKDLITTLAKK
# [10] = molecular target: T6, Sentrin-specific protease 8; type: functional; remark: listed apart in the source
# Aminopeptidase N = molecular target: T7, Aminopeptidase N (Plasmodium falciparum FcB1/Columbia, UniProt O96935); test: P. falciparum M1AAP inhibitors, biochemical, fluorogenic H-Leu-NHMec substrate, 1536-well (AID 1445); set-up: species or system Plasmodium falciparum 3D7, 3D7
# T7 sequence (O96935 whole entry): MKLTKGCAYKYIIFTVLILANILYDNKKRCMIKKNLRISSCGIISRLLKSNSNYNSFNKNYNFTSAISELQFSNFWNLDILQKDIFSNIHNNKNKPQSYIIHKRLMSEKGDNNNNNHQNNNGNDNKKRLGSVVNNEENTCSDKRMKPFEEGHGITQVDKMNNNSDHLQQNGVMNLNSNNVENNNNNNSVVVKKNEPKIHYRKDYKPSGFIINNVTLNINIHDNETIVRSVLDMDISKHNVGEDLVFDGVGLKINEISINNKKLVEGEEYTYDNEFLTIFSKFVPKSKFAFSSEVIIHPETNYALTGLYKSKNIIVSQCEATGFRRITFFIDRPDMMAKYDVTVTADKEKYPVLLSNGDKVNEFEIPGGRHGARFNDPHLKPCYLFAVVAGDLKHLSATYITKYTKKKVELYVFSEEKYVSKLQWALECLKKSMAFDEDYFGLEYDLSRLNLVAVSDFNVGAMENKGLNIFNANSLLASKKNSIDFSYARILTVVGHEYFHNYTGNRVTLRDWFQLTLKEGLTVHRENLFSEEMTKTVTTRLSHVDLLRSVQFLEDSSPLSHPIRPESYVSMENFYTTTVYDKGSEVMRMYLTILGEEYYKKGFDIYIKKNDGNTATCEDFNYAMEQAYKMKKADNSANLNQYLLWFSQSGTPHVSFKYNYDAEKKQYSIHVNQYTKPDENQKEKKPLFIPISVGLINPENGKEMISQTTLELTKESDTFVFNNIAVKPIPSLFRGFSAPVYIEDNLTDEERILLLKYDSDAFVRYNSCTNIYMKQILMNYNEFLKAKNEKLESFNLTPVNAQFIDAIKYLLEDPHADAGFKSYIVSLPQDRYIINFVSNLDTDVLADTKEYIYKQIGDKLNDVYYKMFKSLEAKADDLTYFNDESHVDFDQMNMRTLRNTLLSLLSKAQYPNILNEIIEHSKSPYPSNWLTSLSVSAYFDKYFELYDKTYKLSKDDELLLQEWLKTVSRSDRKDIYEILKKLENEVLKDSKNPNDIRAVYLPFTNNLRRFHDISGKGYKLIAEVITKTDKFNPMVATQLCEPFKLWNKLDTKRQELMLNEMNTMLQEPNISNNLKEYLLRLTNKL
# [11] = molecular target: T8, Carboxy-terminal domain RNA polymerase II polypeptide A small phosphatase 1 (Homo sapiens, UniProt Q9GZU7); test: inhibitors of CTDSP1, concentration-response testing, biochemical assay, absorbance-based, actives from ultra-high-throughput screening (AID 540297); type: functional
# T8 sequence (Q9GZU7 whole entry): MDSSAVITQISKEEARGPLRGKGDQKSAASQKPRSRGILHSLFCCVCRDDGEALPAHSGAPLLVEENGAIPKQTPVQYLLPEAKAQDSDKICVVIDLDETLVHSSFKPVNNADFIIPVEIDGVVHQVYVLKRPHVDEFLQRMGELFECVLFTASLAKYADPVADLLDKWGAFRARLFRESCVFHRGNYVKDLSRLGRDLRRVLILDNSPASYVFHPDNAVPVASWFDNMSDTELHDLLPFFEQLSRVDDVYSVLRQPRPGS
# [12] = molecular target: 26S proteasome non-ATPase regulatory subunit 14 (Homo sapiens, UniProt O00487); test: inhibition of proteasome subunit RPN11 – biochemical, fluorescence polarization, uHTS hits, confirmation (AID 602368); type: functional
# 26S proteasome non-ATPase regulatory subunit 14, sequence (O00487 whole entry): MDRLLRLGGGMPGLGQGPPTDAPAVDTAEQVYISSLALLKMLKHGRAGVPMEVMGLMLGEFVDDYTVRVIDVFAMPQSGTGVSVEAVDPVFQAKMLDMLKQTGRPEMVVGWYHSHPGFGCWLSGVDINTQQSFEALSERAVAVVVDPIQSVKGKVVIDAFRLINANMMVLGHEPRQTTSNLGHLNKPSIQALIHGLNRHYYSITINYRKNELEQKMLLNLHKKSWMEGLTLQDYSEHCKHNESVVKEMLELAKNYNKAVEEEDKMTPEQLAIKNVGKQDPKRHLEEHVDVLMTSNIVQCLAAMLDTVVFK
# [13] = molecular target: 72 kDa type IV collagenase (Homo sapiens, UniProt P08253); test: Dose Response validation of uHTS RPN11 inhibitor hits using a MMP-2 Fluorescence assay.; type: functional
# 72 kDa type IV collagenase, sequence (P08253 whole entry): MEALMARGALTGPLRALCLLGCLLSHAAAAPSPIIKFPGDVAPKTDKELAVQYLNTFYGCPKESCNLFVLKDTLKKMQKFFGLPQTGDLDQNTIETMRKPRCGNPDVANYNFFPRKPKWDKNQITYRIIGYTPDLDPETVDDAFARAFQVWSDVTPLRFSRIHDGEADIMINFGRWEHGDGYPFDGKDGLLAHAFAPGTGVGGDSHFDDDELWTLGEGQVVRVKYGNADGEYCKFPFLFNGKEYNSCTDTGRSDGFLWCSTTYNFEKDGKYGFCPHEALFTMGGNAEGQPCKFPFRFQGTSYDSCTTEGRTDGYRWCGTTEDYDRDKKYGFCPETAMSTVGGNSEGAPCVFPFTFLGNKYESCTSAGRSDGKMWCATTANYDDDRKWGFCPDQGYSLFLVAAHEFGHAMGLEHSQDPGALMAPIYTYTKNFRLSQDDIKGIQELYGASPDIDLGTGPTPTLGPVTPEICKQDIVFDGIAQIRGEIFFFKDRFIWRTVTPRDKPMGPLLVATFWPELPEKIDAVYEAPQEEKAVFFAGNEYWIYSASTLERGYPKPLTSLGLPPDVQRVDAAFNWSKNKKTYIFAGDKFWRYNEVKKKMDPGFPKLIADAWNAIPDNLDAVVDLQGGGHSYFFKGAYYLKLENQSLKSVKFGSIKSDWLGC
# Prothrombin = Prothrombin (Bos taurus, UniProt P00735); test: thrombin inhibition, dose response, biochemical, fluorescence polarization, uHTS hits (AID 602369); type: functional
# P388/ADR = test: cells; type: functional; settings: Mus musculus
# SN12K1 = test: cells; type: functional; settings: Homo sapiens
# [14] = miR-122 activators in hepatoma reporter cells, dose response, cell-based, Huh7 psiCHECK-miR122, Renilla luciferase, cherry-picked (AID 651956); type: functional;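 note: huh7 hepatoma cells stably carrying a psiCHECK-2 miR-122 sensor plasmid; renilla luciferase signal reporting endogenous miR-122 activity after 48 h compound exposure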
structure (smiles),measurement,setting,value
O=C(Nc1ccc(C2=NCCN2)cc1)c1ccc(C(=O)Nc2ccc(C3=NCCN3)cc2)c(Cl)c1,EC50,[1],> 160 µM (inactive)
same,EC50,[2],0.157 µM (active)
same,IC50,Bcl-2-related protein A1,9.71 µM (active)
same,IC50,[3],3.32 µM (active)
same,IC50,[4],1.7 µM (active)
same,IC50,[5],> 66.6 µM (inactive)
same,IC50,[6],4.61 µM (active)
same,AC50,[7],13.8 µM (active)
same,IC50,[8],35.8 µM (active)
COC/C=C/C1=CC2=CC(=O)C(C)(OC(=O)c3cnc4ccccc4n3)C(=O)C2=CN1CCCOC(C)C (stereo unspecified),IC50,[9],19.9 µM (active)
same,IC50,[10],8.09 µM (active)
COc1ccccc1N1C(=N)S/C(=C\c2ccc(-c3ccccc3C(=O)O)o2)C1=O,IC50,Aminopeptidase N,21.7 µM (active)
same,IC50,[11],8.51 µM (active)
same,IC50,[12],24.8 µM (active)
same,IC50,[13],> 100 µM (inactive)
same,IC50,Prothrombin,68.5 µM (active)
COc1ccc(-n2c(SCC(=O)Nc3cccc(S(N)(=O)=O)c3)nc3ccccc3c2=O)cc1OC,IC50,[5],> 66.6 µM (inactive)
same,IC50,[6],4.19 µM (active)
O=C1NC(=O)C(Nc2ccccc2)C(=O)N1,IC50,[9],22.5 µM (active)
same,IC50,[10],28.5 µM (active)
C/C(=C/c1c(C)[nH]c(=O)[nH]c1=O)C(=O)O,GI50,P388/ADR,813 µM (inactive)
same,GI50,SN12K1,> 1370 µM (inactive)
CCC(=O)N(C)C[C@@H]1[C@H](c2ccc(-c3ccccc3F)cc2)[C@H](CO)N1C(C)=O,AC50,[14],49.5 µM (active)
CN1C(=O)c2cc(NC(=O)c3cccc(F)c3)ccc2OC[C@@H]2O[C@H](CC(=O)O)CC[C@H]21,AC50,[14],51.2 µM (active)
CCCCCCC(=O)Nc1nc(C)c(-c2csc(Nc3cc(OC)ccc3OC)n2)s1,IC50,[5],> 66.6 µM (inactive)
same,IC50,[6],11.2 µM (active)

# Source: ChEMBL document CHEMBL1201862, “PubChem BioAssay data set” (2004)
